The subject of experiment [1] is tick kinin receptor in midgut muscles. The experiment in a line: Fluorescent labeling of live midgut ex vivo, confocal microscopy. Format: binding, Rhipicephalus sanguineus. The text has this:
Three peptides were used in this study. These included: 1) the ligand for the endogenous tick kinin receptor from Rhipicephalus sanguineus, Rhisa-kinin 8 peptide of sequence GTGEDQAFSPWGamide (Rhisa-K-8; RK8; of identical sequence to Rhimi-K-8 in Rhipicephalus microplus)[48], 2) the same peptide but fluorescently labeled at the N-terminus with tetramethylrhodamine (TMR) a red fluorescent dye, designated TMR-Rhisa-K-8 (TMR-RK8), and 3) a labeled peptide synthesized with the scrambled sequence of the kinin ligand, designated TMR-Scrambled. The sequence of TMR-RK8 was TMR-C-GTGEDQAFSPWGamide). The TMR-Scrambled kinin (TMR-C-GTQWGPGFEADSamide) served as a negative control for tissue labeling. All peptides were custom-synthesized and purchased from GenScript (Piscataway, NJ, USA) with a purity of ≥ 95% and the cysteine in bold in both sequences was added to attach the label. Experiments were replicated with independently synthesized batches (4 mg each) of labeled and unlabeled peptides, for reproducibility. Unlabeled RK8 was used as a competitive ligand to verify target-specific binding of the labeled TMR-RK8 (see Ligand Competition Assay). For cell assays, the peptide stock solutions (100 µM) were made in 1% dimethyl sulfoxide (DMSO) in Hank’s balanced salt solution (HBSS, Thermo Fisher, Waltham, USA). For fluorescent cell labeling, peptide working solutions (10 µM) were prepared in HBSS from stock solutions. For assays on the midgut, peptides were solubilized and diluted in a tick physiological saline consisting of 140 mM NaCl, 5 mM KCl, 1 mM MgCl2, 5 mM CaCl2, 4 mM NaHCO3, and 5 mM HEPES, pH 7.2[49].
(§1) Individual female ticks were immobilized on a Petri dish filled with wax by submerging their legs in melted wax heated with a soldering pencil (Electronic Control Soldering Station EC 1000, Weller, Apex, North Carolina, USA). Females were dissected under physiological saline following the protocol described by Tidwell et al.[51]. The tick was cut along the edge of the scutum/alloscutum using a stainless steel #12 scalpel blade (Integra Miltex, York, PA, USA), after which the scutum was removed with a pair of fine forceps. To expose the midgut for removal, the tracheae, Malpighian tubules, ovaries, rectal sac, and synganglion were removed with fine forceps in that order. The midgut was then carefully removed and placed into 200 µL of fresh tick saline (See Reagents and Peptides) on a single gasketed incubation chamber (500 µL, Size 22 × 40 mm, Electron Microscopy Sciences, Hatfield, PA). The midguts were then rinsed three times with the physiological tick saline for subsequent fluorescent labeling or activity experiments.
To determine the location of the tick kinin receptor in the midgut of ticks, a commercially synthesized Rhisa-kinin peptide 8[52] conjugated with a stable, red fluorophore (TMR-RK8) or a similarly labeled peptide of scrambled sequence (TMR-Scrambled) were applied to freshly dissected midguts ex vivo. For this, midguts of unfed adult females were incubated in ice-cold saline for 10 min. The saline was removed before incubation in 200 µL of 4’,6-diamidino-2-phenylindole dihydrochloride (DAPI, Sigma, 1 µg/mL in saline) for 1 min and rinsed with saline (200 µL) once. After saline removal, the midgut was incubated for 1 min with 200 µL of 10 µM of either TMR-Scrambled kinin or TMR-RK8, then the labeled peptide solution was removed by pipette and the midgut was rinsed twice with 200 µL saline. […]

In another experiment the test system is tick midgut. The experiment in a line: Tick midgut contraction assay with EthoVision video analysis. Further details: species or system Rhipicephalus sanguineus.
Text: as §1
Midguts were dissected from immobilized female ticks under tick saline, as described under the Midgut Dissection. Ten different midguts were used for each of the two treatments, and ticks were of the same age and batch and had been maintained under the same conditions. Dissected midguts were placed individually into 200 µL of tick saline for 10 min at 28 °C on a gasketed glass coverslip (500 µL, Size 22 × 40 mm) serving as incubation chamber. […] After the final wash and removal of saline, 200 µL of saline were added, and a microscopy coverslip (24 × 60 mm, VWR, Radnor, PA) was placed over the gasketed portion of the incubation chamber, which height (0.5 mm) fits to prevent the midgut from floating, but still allows midgut peristalsis. The midguts were observed and filmed under a dissecting microscope (Olympus SZ61, Japan) equipped with an Infinity 5 camera (Teledyne Lumenera, Ottawa, ON, Canada). All videos were recorded for 1 min with the INFINITY ANALYZE 7 software (Teledyne Lumenera) at 30 frames/second with a 2464 × 2056 resolution. The field of view in all videos recorded represents 4 × 3.5 mm to capture the entire tick midguts under saline. All video files in Windows Media Video (.wmv) format obtained from the Infinity Analyze 7 software were converted to the MP4 format using CloudConvert (cloudconvert.com, Lunaweb, Munich, Germany) for analyses with the EthoVision XT 17 software (Noldus Information Technology, Wageningen, The Netherlands).
We used the EthoVision 17 XT software to quantify the “activity” (pixel change) of the midguts from the videos recorded. This software defines activity as the percentage of pixels that have changed in the entire defined arena between the current image and previous image. The videos are recorded in 2464 × 2056 resolution and the arena is set to be the entire video screen. Video files were uploaded into the program and analyzed starting from time zero to the end of the 60 s video. Detection settings for activity included the activity threshold which was set to 5 to achieve zero detection when the midgut was immobile. Although the video captured 30 frames (images) per s, for the video analysis we chose a “sample rate” of 7 samples /s, with sample rate being the number of images from the video the EthoVision program analyzes per second. To calculate activity, each pixel of the video image was compared from one image to the next, and the proportion of pixel changes was calculated by dividing the number of pixels changed from one image to the next by the total number of pixels in the image. Care was given for the midgut to occupy most of the arena, as the activity analyses will reflect the midgut movement as a proportion of the total arena. Midgut activity is observed as pixel changes, which are represented by the red-colored pixels in the S4 video. The mean pixel change per midgut was then determined by averaging the pixel changes from all samples within the recording period. […]

Entries after “also recorded” stand apart in the source; their conditions may differ.

In the case of TMR-C-GTGEDQAFSPWGamide [TMR-RK8], the “displacement of TMR-RK8 label by phalloidin (in words)” value in experiment [1] (10 µM TMR-RK8, Alexa Fluor 488 Phalloidin 15 min, midgut muscle fibers) was “no observed phalloidin displacement of the TMR-RK8 label”. Further, the “non-specific labeling below midgut surface (in words)” value in experiment [1] (10 µM labeled peptide, 1 min, midguts ex vivo, Z-slices under the surface) was “aggregation of TMR-RK8 signal in what appears to be lipid vesicles; also recorded: non-specific labeling observed in lipid vesicles inside the midgut”. Also, in experiment [1] (10 µM labeled peptide, 1 min, tick saline pH 7.2, midguts of unfed females ex vivo, DAPI and Alexa 488-phalloidin, confocal 20X/40X), the “labeling of midgut surface muscles (in words)” value is “labeled the kinin receptor in muscles; also recorded: localized the kinin receptor to both circular and longitudinal muscles; also recorded: signal was observed in the tick midgut muscles under confocal microscopy; also recorded: observed only on the surface of the midgut; also recorded: binding specifically to the circular (white arrowheads) and longitudinal (white arrows) muscles”. Besides, the “midgut contractions, S4 Video (in words)” value with tick midgut (1 µM TMR-RK8, after 1 min of exposure, 4X speed) is listed as “Rapid contractions were observed shortly after treatment”. The “midgut peristalsis/contractions (in words)” value in the experiment on tick midgut (10 µM, 1 min, 28 °C, midguts of unfed females ex vivo, video recorded 1 min) is reported as “inducing significant midgut peristalsis; also recorded: induced peristalsis”. Also, the “mean activity (mean pixel change, percentage of pixels changed in arena)” value in the experiment on tick midgut (10 µM, 1 min, rinsed twice, 28 °C, tick saline, 60 s video, 7 samples/s, EthoVision XT 17, activity threshold 5, N = 10 midguts) worked out at 1%. Moreover, in the experiment with tick midgut (10 µM, N = 10 vs N = 10, for the duration of the videos), the “mean activity of midguts compared to TMR-Scrambled (in words)” value was “higher mean activity”. For the same substance, the “pixels changing from each sample to the next” value in the experiment on tick midgut (of 5,065,984 pixels per sample, 10 µM, 1 min, 28 °C, N = 10) is “about 50,660 pixels”. For the same substance, the “movement of midguts relative to TMR-Scrambled treated midguts” value in the experiment on tick midgut (ratio of mean activity, 10 µM, N = 10 per treatment) was 10 factor.

(Values after PMC11091117, “A fluorescently-tagged tick kinin neuropeptide triggers peristalsis and labels tick midgut muscles” (Scientific Reports, 2024).)
